# Legend:
# [1] = test system: nitric oxide production; experiment: Nitric oxide production in a murine system, measured via NO metabolites
# Text: It is important to recall that citrulline is regenerated in the last step of NO production, making negative feedback by citrulline a reasonable hypothesis. Alternatively, an acute increase in NO production, which is known to have a negative feedback effect on NOS (Viziri and Wang, 1999) could explain the results. […] The negative clinical effects in the >95% group for the Phase 3 trial may thus result from one or more negative feedback mechanisms. The negative feedback could result from either the effect of NO or the citrulline itself creating feedback on the system.
# [2] = test system: pediatric patients exposed to cardiopulmonary bypass in congenital heart defect surgery; experiment: Phase 3 double-blind, placebo-controlled trial of citrulline in congenital heart defect surgery with cardiopulmonary bypass; assay type: in vivo
# Method: A Phase 3 study was carried out as a double-blind, placebo-controlled trial to confirm the effect. The Phase 3 trial was performed in the US, EU, and Israel, using a modified intent-to-treat population (or modified full analysis set) of 190 patients, of whom 138 were in the US and 52 were ex-US.
# The starting point for the analysis was consideration of the complete modified full analysis set, consisting of all enrolled patients who completed the protocol. […] The Modified Full Analysis Set consists of all enrolled patients who completed the protocol.
# In the study protocol and accompanying pharmacy manual for both studies, citrulline dosing occurs in four distinct phases. Dose 1 is a loading dose added to the cardiopulmonary bypass fluids on a mg/kg basis. Dose 3 is a bolus administered following surgery on a mg/kg basis, and Dose 4 is an IV drip at 9 mg/kg/hour. No variation in administration of these doses was introduced during the course of the phase 3 study.
# In contrast, Dose 2, the intraoperative dosing designed to compensate for ultrafiltration, was subject to some variation. Ultrafiltration during cardiac surgery is not standardized, and therefore, it was not possible to completely standardize this dose. The perfusionist estimates the volume of ultrafiltrate removed, as well as the volume of cardioplegia solution. The perfusionist then calculates according to the study pharmacy manual instructions the amount of citrulline to be administered to compensate for the ultrafiltered citrulline in order to maintain a specified therapeutic level.
# Although the therapeutic target level was set at 100 micromolar during the phase 2 study, because of the potential for variation in Dose 2 (which is given intraoperatively to compensate for the routine ongoing ultrafiltration of circulating bypass fluids to reduce the circulating concentrations of inflammatory mediators) and the concern that some patients might inadvertently receive sub-therapeutic intraoperative levels, the target level for Dose 2 in the phase 3 study was increased to 200 micromolar. This was considered to be safe since no adverse effects of citrulline had been reported, even at substantially higher levels in medical use. In order to examine whether variation in Dose 2 could explain the results obtained, the actual dose received, shown as the percent of the targeted dose, was plotted against the composite variable results. Since placebos received no citrulline, they were plotted at the 0% level.
# For the Phase 3 trial, a target intraoperative dose of […] (Dose 2) was chosen to preclude an inadvertent drop below an efficacious level in any patient. The potential for variation in intraoperative dosing arises from the lack of standardization of cardiopulmonary bypass ultrafiltration techniques. […] Nonetheless, expansion of the study to a greater number of sites raised the concern that some sites might inadvertently underdose Dose 2. Given the known innocuous nature of L-citrulline, an endogenous amino acid that is given medicinally in doses an order of magnitude higher than this to urea cycle disorder patients, as well as the well-tolerated high endogenous concentrations of citrulline in hypercitrullinemia patients, there was no concern for erring on the high side of the presumed effective dose.
# To investigate the data in more detail, patients were stratified according to the dose level actually administered intraoperatively. The values obtained for duration of mechanical ventilation (MV), length of inotrope therapy (InoTx) and the composite primary (created for the SAP, based on the longer of the MV or InoTx) in any patient were segmented into groups based on the percent of the 200 μmol target dose actually received by the patient, by comparing patients who had received <65%, <75%, <85%, <95%, and >95% of the calculated target dose. […] Analysis was performed via two-sided Wilcoxon Rank Sum. […]
# [3] = test system: pediatric patients undergoing surgical procedures involving cardiopulmonary bypass; conditions: 22 patients (11 Tx, 11 PL); Dose 2 100 μmol; cited from earlier work
structure (smiles),measurement,setting,value
"NC(=O)NCCC[C@H](N)C(=O)O [citrulline, L-citrulline]",Nitric oxide production as measured via NO metabolites,[1]; continued increase in citrulline concentration,diminished production of NO
same,Nitric oxide production,"[1]; increasing levels of citrulline, initially",initially facilitate nitric oxide production
same,"Composite (the longer of the MV or InoTx), median","[2]; <65% of target Dose 2, p = 0.0040 vs placebo",1267.0 min
same,"Vent (duration of mechanical ventilation), median","[2]; <65% of target Dose 2, p = 0.0097 vs placebo",139.0 min
same,"Inotrope (duration of inotrope therapy), median","[2]; <65% of target Dose 2, p = 0.0211 vs placebo",1260.0 min
same,"PICU/NICU stay, median","[2]; <65% of target Dose 2, p = 0.0236 vs placebo",2 days
same,"Hospitalization, median","[2]; <65% of target Dose 2, p = 0.0953 vs placebo",4 days
same,"Long-term hospitalizations, citrulline-treated vs placebo",[2]; <75% of calculated Dose 2,fewer long-term hospitalizations
same,"Overall length of hospital stay, citrulline vs placebo",[2]; <75% of calculated Dose 2,not significantly different
same,Reduction of median Composite time vs placebo,[2]; <75% of target Dose 2,42%
same,Reduction of median Inotrope time vs placebo,[2]; <75% of target Dose 2,26%
same,Reduction of median Mechanical Ventilation time vs placebo,[2]; <75% of target Dose 2,70%
same,Reduction of median PICU/NICU stay vs placebo,[2]; <75% of target Dose 2,33%
same,"Composite (the longer of the MV or InoTx), median","[2]; <75% of target Dose 2, p = 0.0025 vs placebo",1267.0 min
same,"Vent (duration of mechanical ventilation), median","[2]; <75% of target Dose 2, p = 0.0129 vs placebo",170.0 min
same,"Inotrope (duration of inotrope therapy), median","[2]; <75% of target Dose 2, p = 0.0158 vs placebo",1260.0 min
same,"PICU/NICU stay, median","[2]; <75% of target Dose 2, p = 0.0295 vs placebo",2 days
same,"Hospitalization, median","[2]; <75% of target Dose 2, p = 0.1905 vs placebo",5 days
same,"Composite (the longer of the MV or InoTx), median","[2]; <85% of target Dose 2, p = 0.0029 vs placebo",1283.5 min
same,"Vent (duration of mechanical ventilation), median","[2]; <85% of target Dose 2, p = 0.0163 vs placebo",176.0 min
same,"Inotrope (duration of inotrope therapy), median","[2]; <85% of target Dose 2, p = 0.0176 vs placebo",1263.5 min
same,"PICU/NICU stay, median","[2]; <85% of target Dose 2, p = 0.0332 vs placebo",2 days
same,"Hospitalization, median","[2]; <85% of target Dose 2, p = 0.1369 vs placebo",5 days
same,"Composite (the longer of the MV or InoTx), median","[2]; <95% of target Dose 2, p = 0.0033 vs placebo",1357.0 min
same,"Inotrope (duration of inotrope therapy), median","[2]; <95% of target Dose 2, p = 0.0242 vs placebo",1300.0 min
same,"Vent (duration of mechanical ventilation), median","[2]; <95% of target Dose 2, p = 0.0459 vs placebo",237.0 min
same,"PICU/NICU stay, median","[2]; <95% of target Dose 2, p = 0.1232 vs placebo",2 days
same,"Hospitalization, median","[2]; <95% of target Dose 2, p = 0.3169 vs placebo",5 days
same,"Hospitalization, median","[2]; >95% of target Dose 2, p = 0.0006 vs placebo",7 days
same,"PICU/NICU stay, median","[2]; >95% of target Dose 2, p = 0.0034 vs placebo",4 days
same,"Vent (duration of mechanical ventilation), median","[2]; >95% of target Dose 2, p = 0.0041 vs placebo",2385.0 min
same,"Inotrope (duration of inotrope therapy), median","[2]; >95% of target Dose 2, p = 0.0069 vs placebo",3142.5 min
same,"Composite (the longer of the MV or InoTx), median","[2]; >95% of target Dose 2, p = 0.0114 vs placebo",3447.0 min
same,"Composite (the longer of the MV or InoTx), median","[2]; All Patients, p = 0.3398 vs placebo (median 2204.0)",1640.0 min
same,"Hospitalization, median","[2]; All Patients, p = 0.3681 vs placebo (median 5)",5 days
same,"Inotrope (duration of inotrope therapy), median","[2]; All Patients, p = 0.7131 vs placebo (median 1717.0)",1514.0 min
same,"PICU/NICU stay, median","[2]; All Patients, p = 0.8484 vs placebo (median 3)",3 days
same,"Vent (duration of mechanical ventilation), median","[2]; All Patients, p = 0.9205 vs placebo (median 574.5)",672.0 min
same,Reduction in the length of stay in the PICU or NICU following surgery,"[2]; Dose 2 at levels <95%, statistically significant",one
same,"Duration of MV, InoTx and composite primary, vs placebo","[2]; all doses under 95% of the target, two-sided Wilcoxon Rank Sum",Statistically significant reduction of all variables
same,"Composite endpoint, treated vs placebo",[2]; complete modified full analysis set,no difference
same,"Effect on composite variable, duration of mechanical ventilation and inotrope therapy vs placebo",[2]; doses higher than 95% of target (>190 μmol),statistically significant negative effect
same,"Primary parameters (duration of MV & InoTx), treated vs placebo",[3],near-significance

# From patent publication US20230404956A1, “T[…] FOR […]” (Asklepion Pharmaceuticals LLC, priority 2022, published 2023)
